How the values were obtained:
[1] = test system: Amblyomma hebraeum nymphs; experiment: Test with polyphagous tick nymphs, dip treatment; format: in vivo; conditions: nymphs immersed for 1 minute; after 4 weeks
Method: (§1) 20 mg of active compound are dissolved in one ml of dimethyl sulphoxide. To prepare a suitable formulation, the solution of active compound is diluted with water to the concentration desired in each case.
10 nymphs which have sucked themselves full are immersed for 1 minute into the preparation of active compound to be tested. The animals are transferred to Petri dishes (Ø 9.5 cm) fitted with filter discs and covered. After 4 weeks of storage in a climatized room, the mortality is determined.
100% means that none of the animals has undergone normal ecdysis. 0% means that all animals have undergone ecdysis.

[2] = test system: larvae of the armyworm (Spodoptera frugiperda); experiment: Spodoptera frugiperda test; format: in vivo; conditions: 500 ppm, cabbage leaves dipped
[3] = test system: Lucilia cuprina larvae; experiment: Blowfly larvae test/Development-inhibitory action; format: in vivo; conditions: 100 ppm; mortality of the larvae after 48 hours
Method: as §1
About 20 Lucilia cuprina larvae are introduced into a test tube which contains about 1 cm^3 of horsemeat and 0.5 ml of the preparation of active compound to be tested. The activity of the preparation of active compound is determined after 48 hours as the mortality of the larvae in %.
The test tubes are then transferred into a beaker whose bottom is covered with sand. After a further 12 days, the test tubes are removed and the pupae and flies are counted. The development-inhibitory action is stated as inhibition of hatching in % (ratio of pupae to flies that have hatched) after 1.5 times the development period of an untreated control.

[4] = test system: fruit tree spider mite (Panonychus ulmi); experiment: Panonychus test; format: in vivo; conditions: 200 ppm, plum trees sprayed
Method: (§2) After the desired period of time, the activity in % is determined.

[5] = test system: larvae of the mustard beetle (Phaedon cochleariae); experiment: Phaedon larvae test; conditions: 1000 ppm, cabbage leaves dipped
[6] = test system: greenhouse red spider mite (Tetranychus urticae); experiment: Tetranychus test (OP-resistant/dip treatment); format: in vivo; conditions: 100 ppm, bean plants dipped
Method: as §2

[7] = test system: larvae of the armyworm (Spodoptera exigua); experiment: Spodoptera exigua test; format: in vivo; conditions: 500 ppm, cabbage leaves dipped
[8] = test system: peach aphid (Myzus persicae); experiment: Myzus test; format: in vivo; conditions: 500 ppm, cabbage leaves dipped
[9] = test system: caterpillars of the diamondback moth (Plutella xylostella); experiment: Plutella test; format: in vivo; conditions: 500 ppm, cabbage leaves dipped
[10] = test system: cotton aphid (Aphis gossypii); experiment: Aphis gossypii test; format: in vivo; conditions: 100 ppm, cotton leaves dipped
[11] = logP determination by HPLC (reversed-phase C 18), EEC Directive 79/831 Annex V.A8; format: physicochemical; conditions: reversed-phase C18 HPLC column, pH 2.3, 0.1% aqueous phosphoric acid/acetonitrile, 43° C., read-out: log P (pH 2.3)
Method: The logP values given in the tables and preparation examples above are determined in accordance with EEC Directive 79/831 Annex V.A8 by HPLC (High Performance Liquid Chromatography) using a reversed-phase column (C 18). Temperature: 43° C.
In the acidic range, the determination is carried out at pH 2.3 using the mobile phases 0.1% aqueous phosphoric acid and acetonitrile; linear gradient from 10% acetonitrile to 90% acetonitrile.
In the neutral range, the determination is carried out at pH 7.5 using the mobile phases 0.01 molar aqueous phosphate buffer solution and acetonitrile; linear gradient from 10% acetonitrile to 90% acetonitrile.
Calibration is carried out using unbranched alkan-2-ones (of 3 to 16 carbon atoms) with known logP values (determination of the logP values by the retention times using linear interpolation between two successive alkanones).

## O=S(=O)(Oc1ccc([C@H]2CCC(c3c(F)cccc3F)=N2)cc1)C(F)(F)F [I-2, (2R)-4-[5-(2,6-Difluorophenyl)-3,4-dihydro-2H-pyrrol-2-yl]phenyl trifluoromethanesulphonate]
[1]
  activity (mortality / no normal ecdysis): good activity
[2]
  Kill rate in % after 6 days: 95%
[3]
  Action in % after 48 hours: 100%
[4]
  Kill rate in % after 7 days: 98%
[5]
  Kill rate in % after 7 days: 100%
[6]
  Kill rate in % after 7 days: 98%
[7]
  Kill rate in % after 6 days: 100%
[8]
  Kill rate in % after 6 days: 98%
[9]
  Kill rate in % after 6 days: 100%
[10]
  Kill rate in % after 6 days: 90%
[11]
  chromatographic logP: 3.55

From patent US20030220386A1, “Delta 1-pyrrolines for use as pesticides” (priority 2000, published 2003)
